The record followed here is ChEMBL document CHEMBL5113529, “Design, Synthesis, and Biological Evaluation of Dual-Target COX-2/CYP51 Inhibitors for the Treatment of Fungal Infectious Diseases” (J Med Chem, 2022).

≈ marks a conversion by molar mass, not a printed value. Calls of active or inactive are those of the source. The calls are words filed in the database; no cut-off is given here.

The subject of assay [1] is Cryptococcus neoformans. The assay can be described thus: Antifungal activity against Cryptococcus neoformans ZKCC 2209 assessed as fungal growth inhibition measured after 72 hrs by double dilution method. It counts as functional.
Assay [2] addresses T1, Prostaglandin G/H synthase 2 (Homo sapiens, UniProt P35354).
T1 sequence (P35354 whole entry): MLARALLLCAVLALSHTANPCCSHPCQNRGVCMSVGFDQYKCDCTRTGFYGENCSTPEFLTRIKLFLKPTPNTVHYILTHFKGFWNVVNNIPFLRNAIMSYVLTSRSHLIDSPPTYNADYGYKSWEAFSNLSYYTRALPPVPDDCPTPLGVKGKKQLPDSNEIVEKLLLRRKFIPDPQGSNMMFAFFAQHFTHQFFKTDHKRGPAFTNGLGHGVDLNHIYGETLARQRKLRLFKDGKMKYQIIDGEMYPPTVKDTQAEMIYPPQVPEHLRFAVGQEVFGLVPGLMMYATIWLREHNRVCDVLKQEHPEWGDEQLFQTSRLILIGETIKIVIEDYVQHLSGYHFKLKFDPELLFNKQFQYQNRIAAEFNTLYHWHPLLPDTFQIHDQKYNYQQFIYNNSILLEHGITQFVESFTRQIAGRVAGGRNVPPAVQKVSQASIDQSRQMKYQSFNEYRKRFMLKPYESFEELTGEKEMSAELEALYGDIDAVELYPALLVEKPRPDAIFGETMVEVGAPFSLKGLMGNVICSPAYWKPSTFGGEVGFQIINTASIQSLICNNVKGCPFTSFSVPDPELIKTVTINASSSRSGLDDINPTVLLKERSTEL
The experiment in a line: Inhibition of COX-2 (unknown origin) using arachidonic acid as substrate preincubated for 10 mins followed by substrate addition and measured after 2 mins by immunoassay.

The subject of assay [3] is Candida albicans. The experiment in a line: Antifungal activity against Candida albicans ATCC SC5314 assessed as decrease in fungal cell density measured immediately by fluorescence microscopy (reference value: 126%). The format is functional. Details: scale not given: the % may be the effect or the level left.
The test system of assay [4] is Candida albicans. The assay can be described thus: Antifungal activity against Candida albicans ATCC SC5314 assessed as decrease in fungal cell density measured at 48 hrs by fluorescence microscopy (reference value: 258%). The format is functional. Details: scale not given: the % may be the effect or the level left.
The subject of assay [5] is Candida albicans. The experiment in a line: Antifungal activity against fluconazole -resistant Candida albicans 904 assessed as fungal growth inhibition measured after 72 hrs by double dilution method. The format is functional.
Assay [6] concerns Candida albicans. The assay can be described thus: Antifungal activity against fluconazole -resistant Candida albicans 632 assessed as fungal growth inhibition measured after 72 hrs by double dilution method. The format is functional.
The target in assay [7] is Prostaglandin G/H synthase 1 (Homo sapiens, UniProt P23219). The experiment in a line: Inhibition of COX-1 (unknown origin) using arachidonic acid as substrate preincubated for 10 mins followed by substrate addition and measured after 2 mins by immunoassay.
Sequence of Prostaglandin G/H synthase 1 (P23219 whole entry): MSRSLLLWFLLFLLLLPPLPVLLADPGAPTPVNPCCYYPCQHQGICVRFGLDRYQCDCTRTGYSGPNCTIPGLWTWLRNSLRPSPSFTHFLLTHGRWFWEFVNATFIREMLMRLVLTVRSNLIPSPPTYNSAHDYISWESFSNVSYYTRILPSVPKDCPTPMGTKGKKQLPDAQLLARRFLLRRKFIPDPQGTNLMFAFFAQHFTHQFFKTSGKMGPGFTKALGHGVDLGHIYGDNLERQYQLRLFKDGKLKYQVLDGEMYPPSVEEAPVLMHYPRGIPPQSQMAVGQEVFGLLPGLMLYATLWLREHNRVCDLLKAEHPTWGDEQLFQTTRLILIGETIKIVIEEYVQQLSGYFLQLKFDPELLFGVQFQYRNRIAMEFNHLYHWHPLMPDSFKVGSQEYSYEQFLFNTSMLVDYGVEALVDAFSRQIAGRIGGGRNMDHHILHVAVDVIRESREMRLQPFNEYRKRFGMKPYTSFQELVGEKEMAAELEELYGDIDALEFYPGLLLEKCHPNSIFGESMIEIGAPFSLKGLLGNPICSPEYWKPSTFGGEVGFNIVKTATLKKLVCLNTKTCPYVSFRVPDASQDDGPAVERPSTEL
The subject of assay [8] is Candida albicans. The experiment in a line: Antifungal activity against fluconazole -resistant Candida albicans CaR assessed as fungal growth inhibition measured after 72 hrs by double dilution method. It counts as functional.
Assay [9] relates to Candida albicans. The experiment in a line: Antifungal activity against fluconazole- resistant Candida albicans 17# assessed as fungal growth inhibition measured after 72 hrs by double dilution method. It counts as functional.
Assay [10] addresses Lanosterol 14-alpha demethylase (Candida albicans (strain SC5314 / ATCC MYA-2876) (Yeast), UniProt P10613). The assay can be described thus: Inhibition of CYP51 in Candida albicans SC5314 using Eburicol as substrate preincubated for 20 mins followed by substrate addition and measured after 4 mins by HPLC analysis. The format is single protein.
The subject of assay [11] is Candida albicans. The assay can be described thus: Antifungal activity against Candida albicans ATCC SC5314 assessed as induction of ROS production by measuring fluorescence intensity incubated for 12 hrs by KGT010-1 staining based fluorescence microscopy. It counts as functional, organism-based.
The subject of assay [12] is Candida albicans. The experiment in a line: Antifungal activity against Candida albicans ATCC SC5314 assessed as fungal growth inhibition measured after 72 hrs by double dilution method. The format is functional.
Assay [13] concerns Candida tropicalis. The assay can be described thus: Antifungal activity against Candida tropicalis ATCC 1369 assessed as fungal growth inhibition measured after 72 hrs by double dilution method. It counts as functional.
Assay [14] concerns Pichia kudriavzevii. The assay can be described thus: Antifungal activity against Candida krusei ATCC 6258 assessed as fungal growth inhibition measured after 72 hrs by double dilution method. It counts as functional.
The subject of assay [15] is Candida albicans. The assay can be described thus: Antifungal activity against fluconazole -resistant Candida albicans 901 assessed as fungal growth inhibition measured after 72 hrs by double dilution method. The format is functional.
Assay [16] has as its system Aspergillus fumigatus. The experiment in a line: Antifungal activity against Aspergillus fumigatus KM8001 assessed as fungal growth inhibition measured after 72 hrs by double dilution method. The format is functional.
For assay [17], the system named is Candida albicans. The assay can be described thus: Antifungal activity against fluconazole- resistant Candida albicans CaR assessed as fungal growth inhibition measured after 72 hrs in presence of fluconazole by double dilution method.
Assay [18] concerns Candida tropicalis. The experiment in a line: microbe, parasite or virus in culture. The conditions noted are these: ATCC 1369, 72 h.
Description: Antifungal activity against Candida tropicalis ATCC 1369 assessed as fungal growth inhibition measured after 72 hrs in presence of fluconazole by double dilution method
For assay [19], the system named is Aspergillus fumigatus. The assay can be described thus: Antifungal activity against Aspergillus fumigatus KM8001 assessed as fungal growth inhibition measured after 72 hrs in presence of fluconazole by double dilution method. The conditions noted are these: KM8001, 72 h.
For assay [20], the system named is Cryptococcus neoformans. The experiment in a line: microbe, parasite or virus in culture. The conditions noted are these: ZKCC 2209, 72 h.
Description: Antifungal activity against Cryptococcus neoformans ZKCC 2209 assessed as fungal growth inhibition measured after 72 hrs in presence of fluconazole by double dilution method
For assay [21], the system named is Candida albicans. The assay can be described thus: Antifungal activity against Candida albicans ATCC SC5314 assessed as fungal growth inhibition measured after 72 hrs in presence of fluconazole by double dilution method. The note with it: ATCC SC5314, 72 h.
Assay [22] relates to Pichia kudriavzevii. The experiment in a line: microbe, parasite or virus in culture. The note with it: ATCC 6258, 72 h.
Description: Antifungal activity against Candida krusei ATCC 6258 assessed as fungal growth inhibition measured after 72 hrs in presence of fluconazole by double dilution method
Assay [23] has as its system Candida albicans. The assay can be described thus: Antifungal activity against fluconazole- resistant Candida albicans 17# assessed as fungal growth inhibition measured after 72 hrs in presence of fluconazole by double dilution method.
Assay [24] relates to Candida albicans. The experiment in a line: microbe, parasite or virus in culture. The conditions noted are these: Candida albicans, 632, 72 h.
Description: Antifungal activity against fluconazole- resistant Candida albicans 632 assessed as fungal growth inhibition measured after 72 hrs in presence of fluconazole by double dilution method
The test system of assay [25] is Candida albicans. The assay can be described thus: microbe, parasite or virus in culture. The conditions noted are these: Candida albicans, 901, 72 h.
Description: Antifungal activity against fluconazole- resistant Candida albicans 901 assessed as fungal growth inhibition measured after 72 hrs in presence of fluconazole by double dilution method
Assay [26] relates to Candida albicans. The assay can be described thus: microbe, parasite or virus in culture. The note with it: Candida albicans, 904, 72 h.
Description: Antifungal activity against fluconazole- resistant Candida albicans 904 assessed as fungal growth inhibition measured after 72 hrs in presence of fluconazole by double dilution method
The test system of assay [27] is Candida albicans. The assay can be described thus: Induction of apoptosis in Candida albicans ATCC SC5314 assessed as mid apoptotic cells incuabted for 24 hrs by V-FITC/PI staining based flow cytometry analysis (reference value: 1.09%). It counts as functional. On the technique in general: Flow cytometry measures light scatter and fluorescence of single cells or particles in a stream.

The subject of assay [28] is Candida albicans. The experiment in a line: Induction of apoptosis in Candida albicans ATCC SC5314 assessed as necrotic cells incuabted for 24 hrs by V-FITC/PI staining based flow cytometry analysis (reference value: 1.77%). The format is functional.
Assay [29] deals with Candida albicans. The assay can be described thus: Induction of apoptosis in Candida albicans ATCC SC5314 assessed as normal cells incuabted for 24 hrs by V-FITC/PI staining based flow cytometry analysis (reference value: 96.78%). It counts as functional.
For assay [30], the system named is Candida albicans. The assay can be described thus: Induction of mitochondrial membrane potential loss in Candida albicans ATCC SC5314 assessed as normal cells at 1 umol/ml incubated for 24 hrs by JC-1 staining based flow cytometry assay (reference value: 95.26%). The format is functional. The note with it: dose 1 µmol/L, at 1 µM.
For assay [31], the system named is Candida albicans. The assay can be described thus: Induction of apoptosis in Candida albicans ATCC SC5314 assessed as late apoptotic cells incuabted for 24 hrs by V-FITC/PI staining based flow cytometry analysis (reference value: 0.36%). It counts as functional.
Assay [32] deals with Candida albicans. The experiment in a line: Induction of mitochondrial membrane potential loss in Candida albicans ATCC SC5314 assessed as depolarized cells at 1 umol/ml incubated for 24 hrs by JC-1 staining based flow cytometry assay (reference value: 0.76 to 3.29%). The format is functional. The note with it: dose 1 µmol/L, at 1 µM.
The subject of assay [33] is Candida albicans. The assay can be described thus: Induction of mitochondrial membrane potential loss in Candida albicans ATCC SC5314 assessed as polarized cells at 1 umol/ml incubated for 24 hrs by JC-1 staining based flow cytometry assay (reference value: 0.69%). The conditions noted are these: dose 1 µmol/L, at 1 µM. The format is functional.

Sequence of Lanosterol 14-alpha demethylase (P10613 whole entry): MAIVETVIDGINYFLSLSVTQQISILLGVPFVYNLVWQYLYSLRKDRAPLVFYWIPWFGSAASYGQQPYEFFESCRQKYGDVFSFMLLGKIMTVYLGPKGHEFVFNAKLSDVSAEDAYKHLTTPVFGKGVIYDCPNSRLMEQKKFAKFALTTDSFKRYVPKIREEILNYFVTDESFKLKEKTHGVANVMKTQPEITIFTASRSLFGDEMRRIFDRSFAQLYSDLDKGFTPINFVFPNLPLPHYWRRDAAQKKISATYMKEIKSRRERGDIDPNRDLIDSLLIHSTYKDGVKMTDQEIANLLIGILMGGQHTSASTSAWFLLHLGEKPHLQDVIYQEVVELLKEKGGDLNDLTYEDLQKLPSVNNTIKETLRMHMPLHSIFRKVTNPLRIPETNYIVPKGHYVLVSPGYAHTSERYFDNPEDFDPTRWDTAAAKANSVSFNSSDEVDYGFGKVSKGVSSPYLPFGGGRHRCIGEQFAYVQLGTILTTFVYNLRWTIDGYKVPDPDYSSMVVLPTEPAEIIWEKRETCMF

Regarding `CC(C)OC(=O)[C@@H](Cn1cncn1)NC(=O)[C@@H](C)c1cccc(C(=O)c2ccccc2)c1`, the MIC50 in assay [1] is 0.25 µg/mL (≈ 0.575 µM); in assay [5] it was above 8 µg/mL; in assay [6] it was above 8 µg/mL; in [8], 4 µg/mL (≈ 9.21 µM); in assay [9], 4 µg/mL (≈ 9.21 µM); in assay [12], 0.25 µg/mL (≈ 0.575 µM). Besides, the MIC50 in assay [13] is 0.5 µg/mL (≈ 1.15 µM); in assay [14], 0.5 µg/mL (≈ 1.15 µM); in assay [15], 4 µg/mL (≈ 9.21 µM); in assay [16], 4 µg/mL (≈ 9.21 µM). In addition, the IC50 was 3410 nM in assay [2], above 50000 nM in assay [7] and 200 nM in assay [10]. Also, the results for the Activity in assay [3] and in assay [4] were 141% and 84%, respectively. The outcome in [11] was Active.
Consider `COc1ccc2cc([C@H](C)C(=O)O)ccc2c1` [NAPROXEN], for which the MIC50 in [17] is 2 µg/mL; in assay [18] it was 0.5 µg/mL (≈ 2.17 µM); in [19], 4 µg/mL; in assay [20], 0.25 µg/mL (≈ 1.09 µM); in [21], 0.25 µg/mL; in assay [22], 1 µg/mL (≈ 4.34 µM). Moreover, the MIC50 in assay [23] turned out to be 4 µg/mL; in [24] it was 4 µg/mL (≈ 17.4 µM); in assay [25], 4 µg/mL (≈ 17.4 µM); in assay [26] it was 2 µg/mL (≈ 8.69 µM). The compound further came in with an IC50 in assay [2] of 2390 nM.
In the case of `COC(=O)[C@@H](Cn1cncn1)NC(=O)[C@@H](C)c1cccc(C(=O)c2ccccc2)c1`, the MIC50 in [1] worked out at 1 µg/mL (≈ 2.46 µM); in assay [12], 0.5 µg/mL (≈ 1.23 µM); in assay [13] it was 1 µg/mL (≈ 2.46 µM); in [14], 0.5 µg/mL (≈ 1.23 µM); in assay [16], 2 µg/mL (≈ 4.92 µM). The Activity is 0.26% in [27]; 34.69% in [28]; 64.15% in assay [29]; 54.56% in [30]; 0.9% in [31]; 0.9% in assay [32]. In addition, the Activity in [33] turned out to be 0.54%.

Usually IC50 stands for the concentration that gives 50% inhibition.
